In patent publication US20070026465A1, “Method for detecting GAD65 autoreactive T cells newly diagnosed type1 diabetic patients and in the prediabetic period” (priority 2005, published 2007):

Tested on: PBMC of newly diagnosed T1D patients
Test: GAD65 HLA class I tetramer staining and flow cytometry of stimulated PBMC, T1D patients
Format: cell-based, human

## VMNILLQYV [GAD65 peptide]
  % of CD3+/CD8+/GAD65 reactive T cells (specificity of the response): 6.39%
